Reference: US20250145607A1, “Modulators of CAMKK2 as Ligand Directed Degraders” (Celgene Corporation, priority 2021, published 2025)

Target: T1, Enhanced ProLabel (ePL)-Tagged CAMKK2 (Homo sapiens, UniProt Q96RR4)
T1 construct: expressed in transfected cells
Test: Degradation of stably expressed ePL-tagged CAMKK2 in 293T cells (InCELL Hunter luminescence, 24 h)
Format: cell-based
Conditions: minimum % protein remaining; ePL-CAMKK2 293T cells, 24 h incubation
Protocol: Cells were dispensed into 384 well plates pre-spotted with serial diluted test compounds. After 24 h incubation, degradation was terminated by the addition of DiscoverX InCELL Hunter Detection reagent.
Assay plates were incubated at 37° C. with 5% CO2 for 24 hours. Plates were kept at room temperature for 30 min, after which 25 μL of the InCELL Hunter Detection Reagent Working Solution was added (catalog number 96-0002, DiscoverX, Fremont, CA). After plates were incubated at room temperature for 30 min, protected from light, luminescence was read on a PHERAstar reader (BMG LABTECH, Cary, N.C.). Data was normalized and fit using Activity Base (IDBS, Alameda, Calif.) as described below.
A Four Parameter Logistic Model (Sigmoidal Dose-Response Model, equation 1) was used to determine the compound's EC50 and degradation Ymin.
where C is CAMKK2 degradation potency EC50, D is the […], A is the lower limit reported as Ymin. Ymin and EC50 were used to characterize compound-mediated CAMKK2 degradation efficiency.

T1 sequence (Q96RR4 whole entry): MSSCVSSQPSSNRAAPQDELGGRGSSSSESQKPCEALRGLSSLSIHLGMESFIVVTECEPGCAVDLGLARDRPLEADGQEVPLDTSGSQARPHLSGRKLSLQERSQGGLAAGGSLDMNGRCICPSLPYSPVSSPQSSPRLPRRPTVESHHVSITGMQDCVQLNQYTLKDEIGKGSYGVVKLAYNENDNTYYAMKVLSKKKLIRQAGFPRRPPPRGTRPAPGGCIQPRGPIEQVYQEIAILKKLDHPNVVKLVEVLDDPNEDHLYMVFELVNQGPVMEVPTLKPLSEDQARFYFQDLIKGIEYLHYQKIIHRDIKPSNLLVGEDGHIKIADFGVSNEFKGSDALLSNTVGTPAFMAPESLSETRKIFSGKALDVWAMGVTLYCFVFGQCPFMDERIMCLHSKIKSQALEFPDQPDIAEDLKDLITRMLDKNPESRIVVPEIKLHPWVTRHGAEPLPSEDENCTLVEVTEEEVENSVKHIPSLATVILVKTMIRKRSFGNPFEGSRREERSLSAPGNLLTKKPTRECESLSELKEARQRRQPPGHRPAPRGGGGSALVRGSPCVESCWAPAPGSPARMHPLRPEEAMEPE

SMILES	(ePL) HEK293 24 h CAMKK2 Ymin(%)
Cc1ncsc1-c1ccc(CNC(=O)[C@@H]2C[C@@H](O)CN2C(=O)[C@@H](NC(=O)CCCCCCCCCCCOc2ccc3c(-c4ccc(C(=O)O)c(C5CCCC5)c4)ncnc3c2)C(C)(C)C)cc1 [Compound 1, 2-cyclopentyl-4-[7-[12-[[(1S)-1-[(2S,4R)-4-hydroxy-2-[[4-(4-methylthiazol-5-yl)phenyl]methylcarbamoyl]pyrrolidine-1-carbonyl]-2,2-dimethyl-propyl]amino]-12-oxo-dodecoxy]quinazolin-4-yl]benzoic acid]	43%
Cc1ncsc1-c1ccc(CNC(=O)[C@@H]2C[C@@H](O)CN2C(=O)[C@@H](NC(=O)CCCCCCOc2ccc3c(-c4ccc(C(=O)O)c(C5CCCC5)c4)ncnc3c2)C(C)(C)C)cc1 (racemic) [Compound 6, 2-cyclopentyl-4-[7-[7-oxo-7-[[rac-(1S)-2,2-dimethyl-1-[rac-(2S,4R)-4-hydroxy-2-[[4-(4-methylthiazol-5-yl)phenyl]methylcarbamoyl]pyrrolidine-1-carbonyl]propyl]amino]heptoxy]quinazolin-4-yl]benzoic acid]	42%
Cc1ncsc1-c1ccc(CNC(=O)[C@@H]2C[C@@H](O)CN2C(=O)[C@@H](NC(=O)CCCCCCCCCCOc2ccc3c(-c4ccc(C(=O)O)c(C5CCCC5)c4)ncnc3c2)C(C)(C)C)cc1 (racemic) [Compound 2, 2-cyclopentyl-4-[7-[11-oxo-11-[[rac-(1S)-2,2-dimethyl-1-[rac-(2S,4R)-4-hydroxy-2-[[4-(4-methylthiazol-5-yl)phenyl]methylcarbamoyl]pyrrolidine-1-carbonyl]propyl]amino]undecoxy]quinazolin-4-yl]benzoic acid]	37%
Cc1ncsc1-c1ccc(CNC(=O)[C@@H]2C[C@@H](O)CN2C(=O)[C@@H](NC(=O)CCCCCCCOc2ccc3c(-c4ccc(C(=O)O)c(C5CCCC5)c4)ncnc3c2)C(C)(C)C)cc1 [Compound 5]	32%
Cc1ncsc1-c1ccc(CNC(=O)[C@@H]2C[C@@H](O)CN2C(=O)[C@@H](NC(=O)CCCCCCCCOc2ccc3c(-c4ccc(C(=O)O)c(C5CCCC5)c4)ncnc3c2)C(C)(C)C)cc1 [Compound 4, 2-cyclopentyl-4-[7-[9-[[(1S)-1-[(2S,4R)-4-hydroxy-2-[[4-(4-methylthiazol-5-yl)phenyl]methylcarbamoyl]pyrrolidine-1-carbonyl]-2,2-dimethyl-propyl]amino]-9-oxo-nonoxy]quinazolin-4-yl]benzoic acid]	19%
